Measured values: patent publication US7371766B2, “Curcumin analogs with anti-tumor and anti-angiogenic properties” (Emory University, priority 1999, dated 2008)
Read-outs that look alike come from different tables or passages of the source.

Tests used:
[1] = system: SF-295; settings: read-out: Median Growth Inhibitory Concentration (GI50); SF-295, CNS Cancer; 48 hours
[2] = system: T-47D; settings: read-out: Median Growth Inhibitory Concentration (GI50), Breast Cancer, 48 hours
[3] = system: OVCAR-5; settings: read-out: Median Growth Inhibitory Concentration (GI50); OVCAR-5, Ovarian Cancer; 48 hours
[4] = system: MDA-MB-435; settings: read-out: Median Growth Inhibitory Concentration (GI50); MDA-MB-435, Breast Cancer; 48 hours
[5] = system: UACC-257; settings: read-out: Median Growth Inhibitory Concentration (GI50); UACC-257, Melanoma; 48 hours
[6] = system: PC-3; settings: read-out: Median Growth Inhibitory Concentration (GI50); PC-3, Prostate Cancer; 48 hours
[7] = system: HCT-15; settings: read-out: Median Growth Inhibitory Concentration (GI50); HCT-15, Colon Cancer; 48 hours
[8] = system: HCC-2998; settings: read-out: Median Growth Inhibitory Concentration (GI50); HCC-2998, Colon Cancer; 48 hours
[9] = system: HCT-116; settings: read-out: Median Growth Inhibitory Concentration (GI50); HCT-116, Colon Cancer; 48 hours
[10] = system: KM12; settings: read-out: Median Growth Inhibitory Concentration (GI50); KM12, Colon Cancer; 48 hours
[11] = system: A549; settings: read-out: Median Growth Inhibitory Concentration (GI50); A549, Non-Small Cell Lung Cancer; 48 hours
[12] = system: SK-MEL-5; settings: read-out: Median Growth Inhibitory Concentration (GI50); SK-MEL-5, Melanoma; 48 hours
[13] = system: UACC-62; settings: read-out: Median Growth Inhibitory Concentration (GI50); UACC-62, Melanoma; 48 hours
[14] = system: MOLT-4; settings: read-out: Median Growth Inhibitory Concentration (GI50); MOLT-4, Leukemia; 48 hours
[15] = system: SN12C; settings: read-out: Median Growth Inhibitory Concentration (GI50), Renal Cancer, 48 hours
[16] = system: NCI-H226; settings: read-out: Median Growth Inhibitory Concentration (GI50); NCI-H226, Non-Small Cell Lung Cancer; 48 hours
[17] = system: LOX IMVI; settings: read-out: Median Growth Inhibitory Concentration (GI50), Melanoma, 48 hours
[18] = system: SNB-19; settings: read-out: Median Growth Inhibitory Concentration (GI50); SNB-19, CNS Cancer; 48 hours
[19] = system: MALME-3M; settings: read-out: Median Growth Inhibitory Concentration (GI50), Melanoma, 48 hours
[20] = system: K-562; settings: read-out: Median Growth Inhibitory Concentration (GI50); K-562, Leukemia; 48 hours
[21] = system: 786-0; settings: read-out: Median Growth Inhibitory Concentration (GI50); 786-0, Renal Cancer; 48 hours
[22] = system: BT-549; settings: read-out: Median Growth Inhibitory Concentration (GI50); BT-549, Breast Cancer; 48 hours
[23] = system: OVCAR-4; settings: read-out: Median Growth Inhibitory Concentration (GI50); OVCAR-4, Ovarian Cancer; 48 hours
[24] = system: MDA-N; settings: read-out: Median Growth Inhibitory Concentration (GI50), Breast Cancer, 48 hours
[25] = system: RPMI-8226; settings: read-out: Median Growth Inhibitory Concentration (GI50); RPMI-8226, Leukemia; 48 hours
[26] = system: MCF-7; settings: read-out: Median Growth Inhibitory Concentration (GI50); MCF-7, Breast Cancer; 48 hours
[27] = system: HOP-62; settings: read-out: Median Growth Inhibitory Concentration (GI50); HOP-62, Non-Small Cell Lung Cancer; 48 hours
[28] = system: BT-549; test: cells; settings: Homo sapiens, BT-549, 48 h; for GI50: read-out: Median Growth Inhibitory Concentration (GI50); for CC50: read-out: Median Lethal Concentration (LC50)
[29] = system: OVCAR-4; test: cells; settings: Homo sapiens, OVCAR-4, 48 h; for GI50: read-out: Median Growth Inhibitory Concentration (GI50); for CC50: read-out: Median Lethal Concentration (LC50)
[30] = system: RPMI-8226; test: cells; settings: Homo sapiens, RPMI-8226, 48 h; for GI50: read-out: Median Growth Inhibitory Concentration (GI50); for CC50: read-out: Median Lethal Concentration (LC50)
[31] = system: PC-3; test: cells; settings: Homo sapiens, PC-3, 48 h; for GI50: read-out: Median Growth Inhibitory Concentration (GI50); for CC50: read-out: Median Lethal Concentration (LC50)
[32] = system: HOP-92; test: cells; settings: Homo sapiens, HOP-92, 48 h; for GI50: read-out: Median Growth Inhibitory Concentration (GI50); for CC50: read-out: Median Lethal Concentration (LC50)

3,5-Bis(2-hydroxybenzylidene)-sulfone [EF11]
GI50 [1]: 53.8 µM | GI50 [2]: 24.7 µM | GI50 [3]: 89.2 µM | GI50 [4]: 31.4 µM | GI50 [5]: 29.8 µM | GI50 [6]: 34.9 µM | GI50 [7]: 42.6 µM | GI50 [8]: 20.5 µM | GI50 [9]: 36.8 µM | GI50 [10]: 19.1 µM | GI50 [11]: 38.7 µM | GI50 [12]: 23.2 µM | GI50 [13]: 21.3 µM | GI50 [14]: 19.7 µM | GI50 [15]: 34.2 µM | GI50 [16]: > 100 µM | GI50 [17]: 40.3 µM | GI50 [18]: 48 µM | GI50 [19]: 40.7 µM | GI50 [20]: 27.4 µM | GI50 [21]: 41.3 µM | GI50 [22]: 32.9 µM | GI50 [23]: 28.7 µM | GI50 [24]: 36.9 µM | GI50 [25]: 18.2 µM | GI50 [26]: 28.7 µM | GI50 [27]: 83.3 µM

N.N.[Cl][Pt][Cl] [Cisplatin, reference compound]
GI50 [1]: 0.3 µM | GI50 [2]: 2 µM | GI50 [3]: 1.3 µM | GI50 [4]: 1.6 µM | GI50 [5]: 1 µM | GI50 [6]: 1.6 µM | GI50 [7]: 1.6 µM | GI50 [8]: 0.1 µM | GI50 [9]: 1.3 µM | GI50 [10]: 2 µM | GI50 [11]: 0.8 µM | GI50 [12]: 0.5 µM | GI50 [13]: 0.3 µM | GI50 [14]: 0.3 µM | GI50 [15]: 1 µM | GI50 [16]: 0.8 µM | GI50 [17]: 0.3 µM | GI50 [18]: 1 µM | GI50 [19]: 0.2 µM | GI50 [20]: 1 µM | GI50 [21]: 0.3 µM | GI50 [22]: 1.3 µM | GI50 [23]: 0.3 µM | GI50 [24]: 0.8 µM | GI50 [25]: 0.5 µM | GI50 [26]: 0.4 µM | GI50 [27]: 0.3 µM

COc1cc(/C=C/C(=O)CC(=O)/C=C/c2ccc(O)c(OC)c2)ccc1O [Curcumin]
GI50 [28]: 5 µM | CC50 [28]: 39.8 µM | GI50 [29]: 10 µM | CC50 [29]: < 100 µM | GI50 [30]: 2 µM | GI50 [31]: 7.9 µM | CC50 [31]: 63.1 µM

O=C1C(=Cc2ccccc2O)CCCC1=Cc1ccccc1O [EF4, 2,6Bis(2-hydroxybenzylidene)cyclohexanone]
GI50 [28]: 2.4 µM | CC50 [28]: 26.1 µM | GI50 [29]: 2.5 µM | CC50 [29]: 18.4 µM | GI50 [32]: 2.8 µM | CC50 [32]: 41.4 µM | GI50 [30]: 0.6 µM | GI50 [31]: 2.1 µM | CC50 [31]: 28.6 µM

CC1(/C=C/c2ccccc2O)C=Cc2ccccc2O1 (stereo not shown) [EF7]
GI50 [28]: 17.1 µM | CC50 [28]: 56.8 µM | GI50 [29]: 14.1 µM | CC50 [29]: 53.1 µM | GI50 [32]: 12.7 µM | CC50 [32]: 54.9 µM | GI50 [30]: 14.8 µM | CC50 [30]: 92.7 µM | GI50 [31]: 17.2 µM | CC50 [31]: 55.6 µM

O=C(C=Cc1ccc(F)cc1F)C=Cc1ccc(F)cc1F [EF9, 1,5-Bis(2,4-difluorophenyl)penta-1,4-dien-3-one]
GI50 [28]: 6.5 µM | CC50 [28]: 47.3 µM | GI50 [29]: 15.2 µM | CC50 [29]: 61.6 µM | GI50 [32]: 16.3 µM | CC50 [32]: 70.4 µM | GI50 [30]: 2.4 µM | CC50 [30]: 95.6 µM | GI50 [31]: 4.8 µM | CC50 [31]: 41 µM

C(=C\c1ccccc1)/S/C=C/c1ccccc1 [EF15]
GI50 [1]: 80.9 µM | GI50 [2]: 18.5 µM | GI50 [3]: > 100 µM | GI50 [4]: 61.2 µM | GI50 [5]: 55.4 µM | GI50 [6]: > 100 µM | GI50 [7]: 49.1 µM | GI50 [8]: 31.6 µM | GI50 [9]: > 100 µM | GI50 [10]: 55.7 µM | GI50 [11]: > 100 µM | GI50 [12]: 53.9 µM | GI50 [13]: 66.7 µM | GI50 [14]: > 100 µM | GI50 [15]: > 100 µM | GI50 [16]: > 100 µM | GI50 [17]: > 100 µM | GI50 [18]: > 100 µM | GI50 [19]: > 100 µM | GI50 [20]: 78.5 µM | GI50 [21]: > 100 µM | GI50 [22]: > 100 µM | GI50 [23]: > 100 µM | GI50 [24]: 67.8 µM | GI50 [25]: 49.8 µM | GI50 [26]: 44.6 µM | GI50 [27]: > 100 µM

OC(CCc1ccc(F)cc1F)CCc1ccc(F)cc1F [EF19, 1,5-Bis(2,4-difluorophenyl)-pentan-3-ol]
GI50 [28]: 17.9 µM | CC50 [28]: 64.7 µM | GI50 [29]: 17.4 µM | CC50 [29]: 65.1 µM | GI50 [32]: 17.5 µM | CC50 [32]: 59.3 µM | GI50 [30]: 21.7 µM | CC50 [30]: > 100 µM | GI50 [31]: 17.5 µM | CC50 [31]: 56.7 µM

CC(=O)O.O=C1C(=Cc2ccccc2F)CNCC1=Cc1ccccc1F [EF24, 3,5-Bis-(2-fluorobenzylidene)-piperidin-4-one-acetate]
GI50 [28]: 0.7 µM | CC50 [28]: 4.7 µM | GI50 [29]: 0.7 µM | CC50 [29]: 17.2 µM | GI50 [32]: 3 µM | CC50 [32]: 23.3 µM | GI50 [30]: 0.2 µM | GI50 [31]: 0.3 µM | CC50 [31]: 7.2 µM
